Molecular target: T1, AsPC-1 HiBiT-KRASG12D (Homo sapiens, UniProt P01116, G12D)
T1 construct: insert the HiBiT tag onto the N-terminus of one or more of the endogenous KRAS alleles; endogenous in cells; host or cells: AsPC-1 (ATCC CRL-1682), CRISPR-Cas9 knock-in clone, one tagged allele
Experiment: HiBiT degradation assay (G12D), AsPC-1 HiBiT-KRASG12D cells
Format: cell-based
Settings: 24 hours treatment; for Dmax: ASPC1, AsPC-1 HiBiT-KRASG12D cells, maximum degradation observed; for DC50: AsPC-1 HiBiT-KRASG12D cells, HiBiT luminescence
Summary of the method: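 Endogenous KRASG12D levels were measured via an N-terminal HiBiT tag knocked into AsPC-1 cells. Cells received compound titrations for 24 hours, and HiBiT luminescence was detected after a 45-minute lytic reagent incubation at room temperature.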

T1 sequence (P01116 1-188 isoform P01116-2 G12D): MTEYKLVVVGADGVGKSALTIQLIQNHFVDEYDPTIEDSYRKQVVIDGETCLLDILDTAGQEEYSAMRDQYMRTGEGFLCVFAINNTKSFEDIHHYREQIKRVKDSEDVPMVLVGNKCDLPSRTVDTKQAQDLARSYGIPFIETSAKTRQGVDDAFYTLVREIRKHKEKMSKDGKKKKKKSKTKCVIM

Row | Structure (SMILES) | Dmax [%] | DC50 [nM]
1 | CCc1cccc2cc(O)cc(-c3ncc4c(N5CC6CCC(C5)N6)nc(OC[C@@]56CCCN5[C@H](COC(=O)N5CCN(c7cc([C@H](C(=O)N8C[C@H](O)C[C@H]8C(=O)N[C@@H](C)c8ccc(-c9scnc9C)cc8)C(C)C)on7)[C@H](C)C5)CC6)nc4c3F)c12 [Compound 327, [(3S,8S)-8-[[4-(3,8-diazabicyclo[3.2.1]octan-3-yl)-7-(8-ethyl-3-hydroxy-1-naphthyl)-8-fluoro-pyrido[4,3-d]pyrimidin-2-yl]oxymethyl]-1,2,3,5,6,7-hexahydropyrrolizin-3-yl]methyl (3R)-4-[5-[(1R)-1-[(2S,4R)-4-hydroxy-2-[[(1S)-1-[4-(4-methylthiazol-5-yl)phenyl]ethyl]carbamoyl]pyrrolidine-1-carbonyl]-isobutyl]isoxazol-3-yl]-3-methyl-piperazine-1-carboxylate] | 80 to 100 | < 600
2 | CCc1cccc2cc(O)cc(-c3ncc4c(N5CC6CCC(C5)N6)nc(OCCN5CCC6(CC5)CN(c5cc([C@@H](C(=O)N7C[C@H](O)C[C@H]7C(=O)N[C@@H](C)c7ccc(-c8ccnn8C)cc7)C(C)C)on5)C6)nc4c3F)c12 (relative stereo) [Compound 141, (2S,4R)-1-[(2R*)-2-[3-(7-{2-[(4-{3,8-diazabicyclo[3.2.1]octan-3-yl}-7-(8-ethyl-3-hydroxynaphthalen-1-yl)-8-fluoropyrido[4,3-d]pyrimidin-2-yl)oxy]ethyl}-2,7-diazaspiro[3.5]nonan-2-yl)-1,2-oxazol-5-yl]-3-methylbutanoyl]-4-hydroxy-N-[(1S)-1-[4-(1-methyl-1H-pyrazol-5-yl)phenyl]ethyl]pyrrolidine-2-carboxamide] | 20 to 60 | 1000 to 3000
3 | C#Cc1c(F)ccc2cc(O)cc(-c3ncc4c(N5CC6CCC(C5)N6)nc(OCCN5CCC(CC6CN(c7cc([C@H](C(=O)N8C[C@H](O)C[C@H]8C(=O)N[C@@H](C)c8ccc(-c9scnc9C)cc8)C(C)C)on7)C6)CC5)nc4c3F)c12 (single isomer, unassigned) [Compound 288] | 80 to 100 | < 600
4 | C#Cc1c(F)ccc2cc(O)cc(-c3ncc4c(N5CC6CCC(C5)N6)nc(OCCN5CCC(F)(CN6CCN(c7cc([C@H](C(=O)N8C[C@H](O)C[C@H]8C(=O)N[C@@H](C)c8ccc(-c9scnc9C)cc8)C(C)C)on7)CC6)CC5)nc4c3F)c12 [Compound 172, (2S,4R)-1-[(2R)-2-(3-{4-[(1-{2-[(4-{3,8-diazabicyclo[3.2.1]octan-3-yl}-7-(8-ethynyl-7-fluoro-3-hydroxynaphthalen-1-yl)-8-fluoropyrido[4,3-d]pyrimidin-2-yl)oxy]ethyl}-4-fluoropiperidin-4-yl)methyl]piperazin-1-yl}-1,2-oxazol-5-yl)-3-methylbutanoyl]-4-hydroxy-N-[(1S)-1-[4-(4-methyl-1,3-thiazol-5-yl)phenyl]ethyl]pyrrolidine-2-carboxamide] | 80 to 100 | < 600
5 | CCc1cccc2cc(O)cc(-c3ncc4c(N5CC6CCC(C5)N6)nc(OCCN5CCC(C(C)(C)N6CCN(c7cc([C@@H](C(=O)N8C[C@H](O)C[C@H]8C(=O)N[C@@H](C)c8ccc(-c9scnc9C)cc8)C(C)C)on7)CC6)CC5)nc4c3F)c12 (single isomer, unassigned) [Compound 254, (2S,4R)-1-[(2R*)-2-(3-{4-[2-(1-{2-[(4-{3,8-diazabicyclo[3.2.1]octan-3-yl}-7-(8-ethyl-3-hydroxynaphthalen-1-yl)-8-fluoropyrido[4,3-d]pyrimidin-2-yl)oxy]ethyl}piperidin-4-yl)propan-2-yl]piperazin-1-yl}-1,2-oxazol-5-yl)-3-methylbutanoyl]-4-hydroxy-N-[(1S)-1-[4-(4-methyl-1,3-thiazol-5-yl)phenyl]ethyl] pyrrolidine-2-carboxamide] | 20 to 60 | 600 to 1000
6 | C#Cc1c(F)ccc2cc(O)cc(-c3ncc4c(N5CC6CCC(C5)N6)nc(OCCN5CCC(CC6CCN(c7cc([C@H](C(=O)N8C[C@H](O)C[C@H]8C(=O)N[C@@H](C)c8ccc(-c9scnc9C)cc8)C(C)C)on7)CC6)CC5)nc4c3F)c12 (relative stereo) [Compound 307, (2S,4R)-1-((R)-2-(3-(4-((1-(2-((4-((1R,5S)-3,8-diazabicyclo[3.2.1]octan-3-yl)-7-(8-ethynyl-7-fluoro-3-hydroxynaphthalen-1-yl)-8-fluoropyrido[4,3-d]pyrimidin-2-yl)oxy)ethyl)piperidin-4-yl)methyl)piperidin-1-yl)isoxazol-5-yl)-3-methylbutanoyl)-4-hydroxy-N—((S)-1-(4-(4-methylthiazol-5-yl)phenyl)ethyl)pyrrolidine-2-carboxamide] | 80 to 100 | < 600
7 | CCc1cccc2cc(O)cc(-c3ncc4c(N5CC6CCC(C5)N6)nc(OCCN5CCC(Oc6cc([C@H](C(=O)N7C[C@H](O)C[C@H]7C(=O)N[C@@H](C)c7ccc(-c8scnc8C)cc7)C(C)C)on6)CC5)nc4c3F)c12 (relative stereo) [Compound 138, (2S,4R)-1-[(2R*)-2-{3-[(1-{2-[(4-{3,8-diazabicyclo[3.2.1]octan-3-yl}-7-(8-ethyl-3-hydroxynaphthalen-1-yl)-8-fluoropyrido[4,3-d]pyrimidin-2-yl)oxy]ethyl}piperidin-4-yl)oxy]-1,2-oxazol-5-yl}-3-methylbutanoyl]-4-hydroxy-N-[(1S)-1-[4-(4-methyl-1,3-thiazol-5-yl)phenyl]ethyl]pyrrolidine-2-carboxamide] | 80 to 100 | < 600
8 | CCc1cccc2cc(O)cc(-c3ncc4c(N5CC6CCC(C5)N6)nc(OC[C@]56CCCN5[C@H](COC(=O)N5CCN(c7cc([C@@H](C(=O)N8C[C@H](O)C[C@H]8C(=O)N[C@@H](C)c8ccc(-c9scnc9C)cc8)C(C)C)on7)C[C@@H]5C)CC6)nc4c3F)c12 [Compound 133, [(3S,7aR)-7a-{[(4-{3,8-diazabicyclo[3.2.1]octan-3-yl}-7-(8-ethyl-3-hydroxynaphthalen-1-yl)-8-fluoropyrido[4,3-d]pyrimidin-2-yl)oxy]methyl}-hexahydro-1H-pyrrolizin-3-yl]methyl (2S)-4-{5-[(2S)-1-[(2S,4R)-4-hydroxy-2-{[(1S)-1-[4-(4-methyl-1,3-thiazol-5-yl)phenyl]ethyl]carbamoyl}pyrrolidin-1-yl]-3-methyl-1-oxobutan-2-yl]-1,2-oxazol-3-yl}-2-methylpiperazine-1-carboxylate] | < 20 | < 600
9 | Cc1ncsc1-c1ccc([C@H](C)NC(=O)[C@@H]2C[C@@H](O)CN2C(=O)[C@H](c2cc(OC3CN(C(=O)OC[C@@H]4CC[C@@H](COc5nc(N6CC7CCC(C6)N7)c6cnc(-c7cc(O)cc(Cl)c7C7CC7)c(F)c6n5)N4C)C3)no2)C(C)C)cc1 [Compound 287] | < 20 | 1000 to 3000
10 | CCc1cccc2cc(O)cc(-c3ncc4c(N5CC6CCC(C5)N6)nc(OC[C@@]56CCCN5[C@H](COC(=O)N5CC(Oc7cc([C@@H](C(=O)N8C[C@H](O)C[C@H]8C(=O)N[C@@H](C)c8ccc(-c9scnc9C)cc8)C(C)C)on7)C5)CC6)nc4c3F)c12 [Compound 127, [(3S,7aS)-7a-{[(4-{3,8-diazabicyclo[3.2.1]octan-3-yl}-7-(8-ethyl-3-hydroxynaphthalen-1-yl)-8-fluoropyrido[4,3-d]pyrimidin-2-yl)oxy]methyl}-hexahydro-1H-pyrrolizin-3-yl]methyl 3-({5-[(2S)-1-[(2S,4R)-4-hydroxy-2-{[(1S)-1-[4-(4-methyl-1,3-thiazol-5-yl)phenyl]ethyl]carbamoyl}pyrrolidin-1-yl]-3-methyl-1-oxobutan-2-yl]-1,2-oxazol-3-yl}oxy)azetidine-1-carboxylate] | < 20 | 600 to 1000

— patent US20250206732A1, “COMPOUNDS AND METHODS FOR THE TARGETED DEGRADATION OF KRAS” (Arvinas Operations, Inc., priority 2022, published 2025)
